From ChEMBL document CHEMBL4354864, “Bicyclic α-Iminophosphonates as High Affinity Imidazoline I2 Receptor Ligands for Alzheimer's Disease” (J Med Chem, 2020)
In brackets after ≈: the same amount, converted by molar mass. Activity calls are given as the source filed them. The calls are words filed in the database; no cut-off is given here.

Key:
[1] = Displacement of [3H]2-BFI from I2IR in Sprague-Dawley rat brain cortex incubated for 45 mins by liquid scintillation spectrometry
[2] = test system: MDCK; assay: Cytotoxicity against dog MDCK cells assessed as effect on cell morphology at 100 uM incubated for 3 to 5 days by microscopic analysis; assay type: cell-based, Canis lupus familiaris
[3] = test system: Mus musculus; assay: Effect on FADD in CD-1 mouse at 20 mg/kg, ip measured after 1 hr by Westernblot analysis; assay type: functional
[4] = Solubility of compound in 99% PBS buffer incubated for 2 hrs by nephelometry; assay type: physicochemical
[5] = Displacement of [3H]2-BFI from I2IR in Swiss mouse brain cortex incubated for 45 mins by liquid scintillation spectrometry
[6] = test system: MDCK; assay: Cytotoxicity against dog MDCK cells assessed as reduction in cell viability at 100 uM incubated for 3 to 5 days by colorimetric analysis; assay type: cell-based, Canis lupus familiaris
[7] = test system: MT4; assay: Cytotoxicity against human MT4 cells assessed as reduction in cell viability at 100 uM incubated for 3 to 5 days by colorimetric analysis; assay type: cell-based; conditions: mt4, 100 µM
[8] = Chemical stability of compound by HPLC analysis; assay type: physicochemical
[9] = target: Cytochrome P450 2D6 (Homo sapiens, UniProt P10635); assay: Inhibition of recombinant human CYP2D6 at 10 uM using AMMC as substrate incubated for 5 mins followed by substrate addition by fluorescence based assay; assay type: ADME; conditions: recombinant enzyme
Cytochrome P450 2D6, sequence (P10635 whole entry): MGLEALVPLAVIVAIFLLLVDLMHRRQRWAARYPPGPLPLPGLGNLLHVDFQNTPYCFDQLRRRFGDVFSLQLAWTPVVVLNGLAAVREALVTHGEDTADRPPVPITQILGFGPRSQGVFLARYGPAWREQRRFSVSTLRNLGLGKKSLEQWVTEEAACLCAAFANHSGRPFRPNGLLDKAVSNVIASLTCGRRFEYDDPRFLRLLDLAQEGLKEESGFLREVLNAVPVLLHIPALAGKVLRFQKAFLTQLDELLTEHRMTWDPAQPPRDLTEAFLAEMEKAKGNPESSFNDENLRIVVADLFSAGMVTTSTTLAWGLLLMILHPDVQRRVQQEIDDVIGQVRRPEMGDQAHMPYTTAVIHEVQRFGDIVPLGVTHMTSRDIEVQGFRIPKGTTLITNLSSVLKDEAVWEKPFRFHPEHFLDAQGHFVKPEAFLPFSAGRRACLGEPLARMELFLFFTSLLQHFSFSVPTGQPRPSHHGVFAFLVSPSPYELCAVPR

[10] = target: Cytochrome P450 2C19 (Homo sapiens, UniProt P33261); assay: Inhibition of recombinant human CYP2C19 at 10 uM using 3-cyano-7-ethoxycoumarin as substrate incubated for 5 mins followed by substrate addition by fluorescence based assay; assay type: ADME; conditions: recombinant enzyme
Cytochrome P450 2C19, sequence (P33261 whole entry): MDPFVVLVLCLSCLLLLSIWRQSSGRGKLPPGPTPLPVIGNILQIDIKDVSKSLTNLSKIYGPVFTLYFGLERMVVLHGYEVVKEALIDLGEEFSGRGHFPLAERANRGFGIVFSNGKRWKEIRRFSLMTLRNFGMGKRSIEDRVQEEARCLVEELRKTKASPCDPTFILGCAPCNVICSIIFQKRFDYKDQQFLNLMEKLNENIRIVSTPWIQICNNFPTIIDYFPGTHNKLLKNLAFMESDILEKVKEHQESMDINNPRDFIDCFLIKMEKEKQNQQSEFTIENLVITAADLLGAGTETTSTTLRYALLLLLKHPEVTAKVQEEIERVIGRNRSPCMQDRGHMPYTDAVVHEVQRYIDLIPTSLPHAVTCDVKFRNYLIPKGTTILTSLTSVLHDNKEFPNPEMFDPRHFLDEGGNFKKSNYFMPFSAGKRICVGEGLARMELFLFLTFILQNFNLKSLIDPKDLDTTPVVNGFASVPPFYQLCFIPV

[11] = target: T1, Cytochrome P450 1A2 (Homo sapiens, UniProt P05177); assay: Inhibition of recombinant human CYP1A2 at 10 uM using 3-cyano-7-ethoxycoumarin as substrate incubated for 5 mins followed by substrate addition by fluorescence based assay; assay type: ADME; conditions: recombinant enzyme
T1 sequence (P05177 whole entry): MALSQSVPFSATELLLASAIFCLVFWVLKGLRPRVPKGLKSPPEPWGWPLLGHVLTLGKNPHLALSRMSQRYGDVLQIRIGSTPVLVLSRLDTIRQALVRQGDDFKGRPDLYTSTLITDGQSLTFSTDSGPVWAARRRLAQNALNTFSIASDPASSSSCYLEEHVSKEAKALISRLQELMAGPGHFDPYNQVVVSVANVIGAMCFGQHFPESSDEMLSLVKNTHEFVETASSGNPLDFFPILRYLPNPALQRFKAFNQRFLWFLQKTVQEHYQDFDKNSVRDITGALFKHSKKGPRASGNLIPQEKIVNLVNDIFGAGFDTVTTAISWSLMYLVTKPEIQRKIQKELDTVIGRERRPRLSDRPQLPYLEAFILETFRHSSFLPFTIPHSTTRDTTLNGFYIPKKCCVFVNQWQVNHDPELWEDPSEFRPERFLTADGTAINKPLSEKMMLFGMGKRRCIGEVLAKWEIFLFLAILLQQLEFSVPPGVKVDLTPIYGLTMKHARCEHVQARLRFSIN

[12] = test system: Mus musculus; assay: Antineuroinflammatory activity in mouse model of 5xFAD assessed as effect on Hmox1 expression at 5 mg/kg, po administered for 4 weeks by qRT-PCR analysis; assay type: functional, organism-based
[13] = target: T2, Cholecystokinin receptor type A (Homo sapiens, UniProt P32238); assay: Displacement of [125I]CCK-8s from human CCKA incubated for 60 mins by scintillation counting method
T2 sequence (P32238 whole entry): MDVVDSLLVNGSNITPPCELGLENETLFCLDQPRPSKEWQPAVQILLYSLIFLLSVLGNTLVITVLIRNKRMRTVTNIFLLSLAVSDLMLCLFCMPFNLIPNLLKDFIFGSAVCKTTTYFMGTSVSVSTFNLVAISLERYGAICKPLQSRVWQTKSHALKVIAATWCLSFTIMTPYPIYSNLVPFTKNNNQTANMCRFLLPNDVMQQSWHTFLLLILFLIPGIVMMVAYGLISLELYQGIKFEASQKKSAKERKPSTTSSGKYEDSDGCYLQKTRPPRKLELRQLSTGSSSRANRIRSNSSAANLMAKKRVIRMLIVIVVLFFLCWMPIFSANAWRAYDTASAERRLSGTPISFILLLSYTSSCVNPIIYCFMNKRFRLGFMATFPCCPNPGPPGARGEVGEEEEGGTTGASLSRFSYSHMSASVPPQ

[14] = target: T3, Gastrin/cholecystokinin type B receptor (Homo sapiens, UniProt P32239); assay: Displacement of [125I]CCK-8s from human CCKB incubated for 60 mins by scintillation counting method
T3 sequence (P32239 whole entry): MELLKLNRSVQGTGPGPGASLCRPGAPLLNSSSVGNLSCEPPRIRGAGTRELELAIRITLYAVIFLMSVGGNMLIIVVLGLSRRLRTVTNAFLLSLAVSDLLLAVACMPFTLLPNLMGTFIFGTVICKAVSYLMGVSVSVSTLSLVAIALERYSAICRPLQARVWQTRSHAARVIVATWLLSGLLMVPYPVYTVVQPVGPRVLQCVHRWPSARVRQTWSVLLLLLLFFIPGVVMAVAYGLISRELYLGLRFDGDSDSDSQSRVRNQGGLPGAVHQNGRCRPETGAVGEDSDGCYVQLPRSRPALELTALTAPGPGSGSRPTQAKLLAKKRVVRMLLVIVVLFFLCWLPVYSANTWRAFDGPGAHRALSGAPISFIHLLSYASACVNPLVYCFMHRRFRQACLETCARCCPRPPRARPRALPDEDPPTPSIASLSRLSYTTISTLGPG

[15] = test system: Vero; assay: Cytotoxicity against monkey Vero cells assessed as effect on cell morphology at 100 uM incubated for 3 to 5 days by microscopic analysis; assay type: cell-based; conditions: chlorocebus sabaeus
[16] = test system: Vero; assay: Cytotoxicity against monkey Vero cells assessed as reduction in cell viability at 100 uM incubated for 3 to 5 days by colorimetric analysis; assay type: cell-based; conditions: chlorocebus sabaeus
[17] = test system: Mus musculus; assay: Antineuroinflammatory activity in mouse model of 5xFAD assessed as reduction in Cxcl10 expression at 5 mg/kg, po administered for 4 weeks by qRT-PCR analysis; assay type: functional, organism-based
[18] = test system: Mus musculus; assay: Antineuroinflammatory activity in mouse model of 5xFAD assessed as reduction in TNFalpha expression at 5 mg/kg, po administered for 4 weeks by qRT-PCR analysis; assay type: functional, organism-based
[19] = Stability in mouse liver microsomes at 5 uM incubated for 60 mins by UPLC-MS/MS analysis; assay type: ADME, Microsome; conditions: 1 h
[20] = Solubility of compound in acetonitrile incubated for 2 hrs by nephelometry; assay type: physicochemical
[21] = Solubility of compound in water incubated for 2 hrs by nephelometry; assay type: physicochemical; conditions: buffer
[22] = Stability in human liver microsomes at 5 uM incubated for 60 mins by UPLC-MS/MS analysis; assay type: ADME, Microsome; conditions: 1 h
[23] = Cytotoxicity against human MRC5 cells assessed as reduction in cell viability incubated for 3 to 5 days by colorimetric analysis; assay type: cell-based
[24] = test system: HeLa; assay: Cytotoxicity against human HeLa cells assessed as effect on cell morphology at 100 uM incubated for 3 to 5 days by microscopic analysis; assay type: cell-based
[25] = Stability in rat liver microsomes at 5 uM incubated for 60 mins by UPLC-MS/MS analysis; assay type: ADME, Microsome; conditions: 1 h

SMILES: CCOP(=O)(OCC)C1(c2ccccc2)N=CC2C(=O)N(c3ccc(F)c(Cl)c3)C(=O)C21 (racemic)
- pKi [1]: 6.92
- Activity [2]: Non-Toxic
- Activity [3]: -30%
- solubility kinetic at 2 h [4]: 92 µM (≈ 44.1 µg/mL)
- pKi [5]: 6.41
- Activity [6]: Non-Toxic
- Activity [7]: Non-Toxic
- Stability [8]: 100%
- inhibition (INH) [9]: Not Active
- inhibition (INH) [10]: Not Active
- inhibition (INH) [11]: Not Active
- Activity [12]: Active
- IC50 [13]: 5.94 µM
- IC50 [14]: > 10 µM
- Activity [15]: Non-Toxic
- Activity [16]: Non-Toxic
- Activity [17]: Active
- Activity [18]: Active
- Stability [19]: Stable
- solubility [20]: Soluble
- solubility [21]: Soluble
- Stability [22]: Stable
- CC50 [23]: > 100 µM
- Activity [24]: Non-Toxic
- Stability [25]: Stable
